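Where inhibition never reached the appropriate level, the endpoint shown equals the highest concentration tested. Otherwise, values were interpolated linearly from a five-concentration, 48-hour dose response in 96-well plates. At the GI50, growth is halved.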 Calls of active or inactive are those of the source. No stated cut-off is given here; in the data, active = GI50 up to about 1.1 µM and inactive = higher.
Columns and labels:
Test in all cases: inhibition of tumour cell growth, NCI panel, 48 h
786-0 = system: 786-0
A549 = system: A549
ACHN = system: ACHN
BT-549 = system: BT-549
CAKI-1 = system: CAKI-1
CCRF-CEM = system: CCRF-CEM
COLO 205 = system: COLO 205
DU-145 = system: DU-145
EKVX = system: EKVX
HCT-116 = system: HCT-116
HCT-15 = system: HCT-15
HL-60 = system: HL-60
HOP-62 = system: HOP-62
HT-29 = system: HT-29
Hs-578T = system: Hs-578T
IGROV-1 = system: IGROV-1
K562 = system: K562
KM12 = system: KM12
LOX IMVI = system: LOX IMVI
M14 = system: M14
MCF7 = system: MCF7
MDA-MB-231 = system: MDA-MB-231
MDA-MB-435 = system: MDA-MB-435
MDA-N = system: MDA-N
MOLT-4 = system: MOLT-4
Malme-3M = system: Malme-3M
NCI-H226 = system: NCI-H226
NCI-H23 = system: NCI-H23
NCI-H460 = system: NCI-H460
NCI-H522 = system: NCI-H522
NCI/ADR-RES = system: NCI/ADR-RES
OVCAR-3 = system: OVCAR-3
OVCAR-4 = system: OVCAR-4
OVCAR-5 = system: OVCAR-5
OVCAR-8 = system: OVCAR-8
PC-3 = system: PC-3
RPMI-8226 = system: RPMI-8226
RXF 393 = system: RXF 393
SF-268 = system: SF-268
SF-295 = system: SF-295
SK-MEL-28 = system: SK-MEL-28
SK-MEL-5 = system: SK-MEL-5
SK-OV-3 = system: SK-OV-3
SN12C = system: SN12C
SNB-19 = system: SNB-19
SNB-75 = system: SNB-75
SR = system: SR
T47D = system: T47D
TK-10 = system: TK-10
U-251 = system: U-251
UACC-257 = system: UACC-257
UACC-62 = system: UACC-62
UO-31 = system: UO-31

Structure (SMILES): S=C1CC(c2ccc(Cl)cc2)Sc2ccccc2N1 (stereo not drawn)
- GI50 (786-0): 34 µM (inactive)
- GI50 (A549): 55.5 µM (inactive)
- GI50 (ACHN): 71.8 µM (inactive)
- GI50 (BT-549): 21.1 µM (inactive)
- GI50 (CAKI-1): 41.4 µM (inactive)
- GI50 (CCRF-CEM): 51.9 µM (inactive)
- GI50 (COLO 205): 71.9 µM (inactive)
- GI50 (DU-145): 51.4 µM (inactive)
- GI50 (EKVX): 34 µM (inactive)
- GI50 (HCT-116): 19.1 µM (inactive)
- GI50 (HCT-15): 90.8 µM
- GI50 (HL-60): 30.5 µM (inactive)
- GI50 (HOP-62): 16.4 µM (inactive)
- GI50 (HT-29): > 100 µM (inactive)
- GI50 (Hs-578T): 11.9 µM (inactive)
- GI50 (IGROV-1): 43.4 µM (inactive)
- GI50 (K562): > 10 µM (inactive)
- GI50 (KM12): 45.7 µM (inactive)
- GI50 (LOX IMVI): 40.8 µM (inactive)
- GI50 (M14): 24.3 µM (inactive)
- GI50 (MCF7): 39.4 µM (inactive)
- GI50 (MDA-MB-231): 30.4 µM (inactive)
- GI50 (MDA-MB-435): 87.1 µM (inactive)
- GI50 (MDA-N): > 100 µM (inactive)
- GI50 (MOLT-4): > 10 µM (inactive)
- GI50 (Malme-3M): 53.2 µM (inactive)
- GI50 (NCI-H226): 50.5 µM (inactive)
- GI50 (NCI-H23): 37.2 µM (inactive)
- GI50 (NCI-H460): 60 µM (inactive)
- GI50 (NCI-H522): 21.6 µM (inactive)
- GI50 (NCI/ADR-RES): 32.4 µM (inactive)
- GI50 (OVCAR-3): 23.1 µM (inactive)
- GI50 (OVCAR-4): 28.8 µM (inactive)
- GI50 (OVCAR-5): > 100 µM (inactive)
- GI50 (OVCAR-8): > 100 µM (inactive)
- GI50 (PC-3): 24.2 µM (inactive)
- GI50 (RPMI-8226): 24.3 µM (inactive)
- GI50 (RXF 393): 16.2 µM (inactive)
- GI50 (SF-268): 24.7 µM (inactive)
- GI50 (SF-295): > 100 µM (inactive)
- GI50 (SK-MEL-28): 25.2 µM (inactive)
- GI50 (SK-MEL-5): 25.3 µM (inactive)
- GI50 (SK-OV-3): 22.5 µM (inactive)
- GI50 (SN12C): 78.5 µM (inactive)
- GI50 (SNB-19): 27.8 µM (inactive)
- GI50 (SNB-75): > 10 µM (inactive)
- GI50 (SR): 33.3 µM (inactive)
- GI50 (T47D): 40.4 µM (inactive)
- GI50 (TK-10): 46.7 µM (inactive)
- GI50 (U-251): 41.3 µM (inactive)
- GI50 (UACC-257): > 100 µM (inactive)
- GI50 (UACC-62): 31.6 µM (inactive)
- GI50 (UO-31): > 100 µM (inactive)
